Experimental data reported in patent US8703768B2, “Nitrogen containing heteroaryl compounds” (Hoffmann-La Roche Inc., priority 2010, dated 2014).

The compounds below were run against human PDE10A (Homo sapiens (Human), UniProt Q9Y233) (assay: human PDE10A full length Scintillation Proximity Assay (SPA)). Conditions: 50 nM cGMP and 50 nM [3H]-cGMP, 20 minutes at room temperature; read-out: PDE10A inhibition IC50.
Format: biochemical
In short: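 Full-length enzyme incubated with compounds; reaction started with cGMP plus [^3H]-cGMP substrate and run 20 min at room temperature. Stopped with yttrium silicate SPA beads in 18 mM zinc sulphate, 1 h shaking, then scintillation counting; background from enzyme-free wells.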

human PDE10A, sequence (Q9Y233 other isoform, or with tags, fused parts or gaps): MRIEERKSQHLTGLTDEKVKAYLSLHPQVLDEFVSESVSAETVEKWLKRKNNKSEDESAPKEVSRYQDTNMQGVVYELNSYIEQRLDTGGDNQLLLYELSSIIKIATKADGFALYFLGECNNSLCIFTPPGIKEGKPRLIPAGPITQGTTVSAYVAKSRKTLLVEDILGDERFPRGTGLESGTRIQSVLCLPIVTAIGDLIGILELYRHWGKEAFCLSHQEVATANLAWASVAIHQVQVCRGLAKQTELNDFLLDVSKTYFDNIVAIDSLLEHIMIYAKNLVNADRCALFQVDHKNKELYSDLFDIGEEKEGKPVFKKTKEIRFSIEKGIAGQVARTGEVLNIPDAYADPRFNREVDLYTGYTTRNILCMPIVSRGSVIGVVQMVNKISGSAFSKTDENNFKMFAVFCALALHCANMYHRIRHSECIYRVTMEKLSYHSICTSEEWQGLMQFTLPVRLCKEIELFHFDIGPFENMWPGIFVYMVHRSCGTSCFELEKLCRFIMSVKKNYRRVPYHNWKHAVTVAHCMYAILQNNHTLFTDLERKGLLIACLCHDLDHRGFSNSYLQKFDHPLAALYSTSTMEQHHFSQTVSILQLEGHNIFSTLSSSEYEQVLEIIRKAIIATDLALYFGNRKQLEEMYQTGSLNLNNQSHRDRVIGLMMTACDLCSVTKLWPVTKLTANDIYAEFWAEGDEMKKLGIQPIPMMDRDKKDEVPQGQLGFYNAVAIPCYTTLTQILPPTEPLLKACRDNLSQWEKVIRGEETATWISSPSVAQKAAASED

Structure (SMILES) | IC50 [nM]
CC(C)Cc1ncc(Nc2cncnc2)c(C(=O)Nc2cccnc2C(=O)NCC(C)(C)O)n1 [Example 331, 2-Isobutyl-5-(pyrimidin-5-ylamino)-pyrimidine-4-carboxylic acid [2-(2-hydroxy-2-methyl-propylcarbamoyl)-pyridin-3-yl]-amide] | 3.1
CNC(=O)c1c(NC(=O)c2nc(CC(C)C)ncc2Nc2cncnc2)cnn1C [Example 332, 2-Isobutyl-5-(pyrimidin-5-ylamino)-pyrimidine-4-carboxylic acid (1-methyl-5-methylcarbamoyl-1H-pyrazol-4-yl)-amide] | 12.8
CNC(=O)c1c(NC(=O)c2nc(N3CCN(C)CC3)cnc2Nc2cncnc2)cnn1C [Example 333, 4-Methyl-5′-(pyrimidin-5-ylamino)-3,4,5,6-tetrahydro-2H-[1,2]bipyrazinyl-6′-carboxylic acid (1-methyl-5-methylcarbamoyl-1H-pyrazol-4-yl)-amide] | 691
CON(C)C(=O)c1c(NC(=O)c2nc(C3CC3)cnc2Nc2cncnc2)cnn1C [Example 334, 6-Cyclopropyl-3-(pyrimidin-5-ylamino)-pyrazine-2-carboxylic acid [5-(methoxy-methyl-carbamoyl)-1-methyl-1H-pyrazol-4-yl]-amide] | 2.2
Cn1ncc(NC(=O)c2nc(C3CC3)cnc2Nc2cncnc2)c1C(=O)N1CCCO1 [Example 335, 6-Cyclopropyl-3-(pyrimidin-5-ylamino)-pyrazine-2-carboxylic acid [5-(isoxazolidine-2-carbonyl)-1-methyl-1H-pyrazol-4-yl]-amide] | 0.8
Cn1ncc(NC(=O)c2nc(C3CC3)cnc2Nc2cncnc2)c1C(=O)NC1CCCC1O (centres unmarked) [Example 336, 6-Cyclopropyl-3-(pyrimidin-5-ylamino)-pyrazine-2-carboxylic acid [5-(2-hydroxy-cyclopentylcarbamoyl)-1-methyl-1H-pyrazol-4-yl]-amide] | 5.3
CNC(=O)c1c(NC(=O)c2nc(OCC(F)(F)F)ncc2Nc2cncnc2)cnn1C [Example 337, 5-(Pyrimidin-5-ylamino)-2-(2,2,2-trifluoro-ethoxy)-pyrimidine-4-carboxylic acid (1-methyl-5-methylcarbamoyl-1H-pyrazol-4-yl)-amide] | 126

More lines, now with the values ahead:

IC50 [nM] | Structure (SMILES)
2.1 | CNC(=O)c1cc(OCC(C)(C)O)ccc1NC(=O)c1nc(C2CC2)cnc1Nc1cncnc1 [Example 338, 6-Cyclopropyl-3-(pyrimidin-5-ylamino)-pyrazine-2-carboxylic acid [4-(2-hydroxy-2-methyl-propoxy)-2-methylcarbamoyl-phenyl]-amide]
49.3 | CNC(=O)c1c(NC(=O)c2nc(OCC(F)(F)F)cnc2Nc2cncnc2)cnn1C [Example 339, 3-(Pyrimidin-5-ylamino)-6-(2,2,2-trifluoro-ethoxy)-pyrazine-2-carboxylic acid (1-methyl-5-methylcarbamoyl-1H-pyrazol-4-yl)-amide]
250 | CNC(=O)c1c(NC(=O)c2nc(C(C)(C)O)ncc2Nc2cncnc2)cnn1C [Example 340, 2-(1-Hydroxy-1-methyl-ethyl)-5-(pyrimidin-5-ylamino)-pyrimidine-4-carboxylic acid (1-methyl-5-methylcarbamoyl-1H-pyrazol-4-yl)-amide]
28 | CNC(=O)c1c(NC(=O)c2nc(C(C)(C)O)cnc2Nc2cncnc2)cnn1C [Example 341, 6-(1-Hydroxy-1-methyl-ethyl)-3-(pyrimidin-5-ylamino)-pyrazine-2-carboxylic acid (1-methyl-5-methylcarbamoyl-1H-pyrazol-4-yl)-amide]
